“Also recorded” adds a separate entry of the source.
Columns and labels:
thymocytes = assay: Proliferation of anti-CD3e activated thymocytes in serum-free medium; assay type: cell-based, BALB/c mouse; conditions: for proliferative response: anti-CD3, retinol 3×10^-6 M or 14HRR 6×10^-7 M; for growth over a four day period: retinol 3×10^-6 M, 14HRR 6×10^-7 M, human serum 3%
Protocol: FIG. 14A: Purified BALB/c thymocytes were activated with immobilized anti-CD3e antibody and cultivated for four days in ITLB medium with or without retinol (3×10^-6 M), 14HRR (6×10^-7 M) (fresh 14HRR was added every 12 hours), human serum (3%) or FCS (10%) at the cellular densities shown. Proliferation was assayed by tritiated thymidine incorporation into cellular DNA. The SDs were below 20%.
FIG. 14B: BALB/c thymocytes (10^6 /ml) were added to microtiter plates coated with titrated amounts of anti-CD3e antibody with […] retinol or without, as indicated. Proliferation was measured in hexaduplicate wells on day 3 by ^3 H thymidine incorporation assay.
FIG. 14C: BALB/c thymocytes (3×10^6 /ml) were activated with anti-CD3e mAb as FIG. 1A. The total number of viable cells was determined by counting trypan blue-excluding cells, and those of blast cells by counting viable large cells in six replicate wells. Because of the relatively low cell density required in the culture (see FIG. 14A), the numbers reported for blast cells are best estimates.
Purified thymocytes (5×10^5 cells/well) were stimulated by TCR crosslinking with immobilized anti-CD3e antibody (FIG. 15A) or 0.4 μg/ml Con A (FIG. 15B) in serum-free ITLB medium. The indicated amounts of retinoids were added either once at the beginning of the experiment (marked as "1x") or every 12 hours thereafter (marked as "6x"). DNA synthesis was measured after 72 hours by tritiated thymidine uptake as described.
Purified thymocytes (10^5 cells/well) were activated with anti-CD3 antibody in ITLB medium with or without retinol (3×10^-6 M), 14HRR (6×10^-7, added every 12 hours or human serum (3%)). DNA synthesis was measured daily by a 4 hour pulse of tritiated thymidine. SDs were ≤12%.
Thymocytes (5×10^4 /well) were activated by immobilized anti-CD3 mAb in medium ITLB. Retinol (2×10^-6 M) was added at initiation of culture, or delayed by 12 hours and 24 hours, respectively, or omitted altogether. ^3 H thymidine pulses of 4 hours were used to measure DNA synthesis of hexaduplicate wells. (SDs were 20% or less.)
Thymuses of 3 to 6-week-old BALB/c mice were teased in serum-free RPMI medium supplemented with 1% BSA, 10^-6 M linoleic acid and antibiotics. Depletion of accessory cells was achieved by two cycles of complement-dependent lysis with a mixture of anti-IA^d (5 μg/ml) and anti-Itd (1:500 diluted ascites fluid). Briefly, cells were incubated on ice for 30 minutes with Ia antibodies, spun down, resuspended in 1:40 diluted rabbit complement, and incubated at 37° C. for 45 minutes. Incubations and two subsequent washes were carried out with RPMI medium containing 1% BSA. Cell viability was evaluated by trypan blue dye exclusion. To determine the extent of depletion of accessory cells, samples were stained with FITC-conjugated anti-Fc receptor antibody and analyzed by flow cytometry on a FACScan instrument (Becton Dickinson). No FcR-bearing cells were detected by this procedure.
Cells were cultured in serum-free medium, referred to as ITLB, containing RPMI 1640 supplemented with 8×10^-7 M insulin (5 μg/ml), 7×10^-8 M transferrin (5 μg/ml), 2×10^-6 M linoleic acid, 2×10^-6 M delipidated BSA (0.12 mg/ml), 2 mM L-glutamine, 1 mM sodium pyruvate and antibiotics. They were seeded into 96-well flat-bottom plates at varying cellular densities in a final volume of 100 μl. In control experiments, cells were cultured in medium containing 10% FCS or 3% human serum and 5×10^-5 M 2 ME. T cells and thymocytes were activated with immobilized, purified anti-mab CD3e or by the addition of Con A in the presence or absence of different concentrations of retinoids. Unless indicated otherwise, retinoids were replenished every 12 hours to maintain a reasonably constant concentration of these labile compounds in culture. […]

lymph node T cells = assay: Proliferation of anti-CD3 activated lymph node T cells; assay type: cell-based, BALB/c mouse; conditions: anti-CD3
Source text: Growth curves of lymph node T cells depleted of antigen-presenting cells (FIG. 17A) with and without 10^-6 M retinol at 2×10^5 and 5×10^4 cells/well. (FIG. 17B) Dose-responses elicited by different retinoids in cultures of lymph node T cells depleted of antigen-presenting cells. Also shown are the growth curves of CD4^+ (FIG. 17C) and CD8^+ T lymphocytes (FIG. 17D) in the presence of either retinol, 14HRR, human serum or in their absence.
T lymphocytes, purified as described, 5×10^4 well, were activated with immobilized anti-CD3 antibody in ITLB medium. The indicated amounts of retinoids or human serum were added at initiation of cultures. […] 14HRR was added every 12 hours. DNA synthesis was measured by a 4 hour pulse with tritiated thymidine. SDs were ≤17%.
Mature T cells were obtained from pooled intestinal, axillary, inguinal and submandibular lymph nodes of 4 to 10-week-old BALB/c mice. To fractionate cells into CD4 and CD8 subsets and at the same time remove APC, a combination of adherence and complement lysis was used as follows:
Cells were cultured in serum-free medium, referred to as ITLB, containing RPMI 1640 supplemented with 8×10^-7 M insulin (5 μg/ml), 7×10^-8 M transferrin (5 μg/ml), 2×10^-6 M linoleic acid, 2×10^-6 M delipidated BSA (0.12 mg/ml), 2 mM L-glutamine, 1 mM sodium pyruvate and antibiotics. They were seeded into 96-well flat-bottom plates at varying cellular densities in a final volume of 100 μl. In control experiments, cells were cultured in medium containing 10% FCS or 3% human serum and 5×10^-5 M 2 ME. T cells and thymocytes were activated with immobilized, purified anti-mab CD3e or by the addition of Con A in the presence or absence of different concentrations of retinoids. Unless indicated otherwise, retinoids were replenished every 12 hours to maintain a reasonably constant concentration of these labile compounds in culture. The optimal concentration for stimulation of T cells was determined for each batch of anti-CD3 mAb and Con A. The optimal range of Con A was particularly narrow in serum-free medium (0.5-0.2 μg/ml) and varied with the cell density used. […] Cultures were carried out in duplicate. Plates were incubated at 37° C. in a humidified 5% CO2 atmosphere. Cellular proliferation was determined by [^3 H] thymidine uptake (0.5 uCi/well; New England Nuclear, Boston, Mass.) after the incubation times indicated for each experiment with a 4 hour labeling pulse. Cells were harvested onto glass filter and [^3 H]TdR incorporation was determined by liquid scintillation counting. The data presented are the means of duplicate or six replicate cultures. The restriction to duplicate measurements was necessary to conserve scarce 14HRR. They were within 20% of each other. Each experiment was repeated at least twice.

B lymphocytes = conditions: cited from earlier work
[1] = previous analyses with B lymphocytes (33)

Structure (SMILES)	proliferative response (thymocytes)	response when supplied together with activation signal (thymocytes; no delay)	reduction of sufficient retinol concentration on repeated feeding (thymocytes; replenished twice daily, 3-day culture)	growth over a four day period (thymocytes)	viability (thymocytes; retinol by itself)	effect of 12-hour delay in addition (thymocytes; retinol delayed 12 hours)	effect of delayed addition (thymocytes; retinol delayed by 24 hours)	T cell activation (thymocytes; retinol on its own)	stimulation of lymph node T cells (lymph node T cells)	support of B cell growth/proliferation (B lymphocytes; previous studies)	potency relative to retinol in supporting T cell proliferation (thymocytes; provided at 12 hour intervals)	effect of a single addition at initiation of culture (thymocytes; single addition)	potency relative to retinol in preventing necrotic cell death (B lymphocytes; on a concentration basis, previous studies)	concentration at which activity was demonstrated (B lymphocytes; [1]) [µM]	difference in active concentration, 14HRR versus retinal (B lymphocytes; [1]) [fold]
CC1=C(/C=C/C(C)=C/C=C/C(C)=C/CO)C(C)(C)CCC1 [retinol, all-trans retinol]	vigorous responses were elicited	highest responses	five- to ten-fold lower	exponential growth	maintain a higher state of viability than anti-CD3e "only" stimulation, or omission of test reagents altogether	stagnation	complete failure of activation	no discernible T cell activation	dependent on the presence of retinol	necessary for the growth of B lymphocytes					
CC(C=CC=C(C)C(O)CO)=CC=C1C(C)=CCCC1(C)C (stereo not shown) [14HRR, 14-hydroxy-4,14-retro-retinol]	vigorous responses were elicited			exponential growth					effective over the same dose range as observed for thymocytes	capable of supporting the proliferation of B cells in the absence of an external supply of retinol	as potent as retinol	ineffective; also recorded: does not enable sustained proliferation; also recorded: insufficient to drive T cell proliferation	20-40 times more potent	5	40

From patent publication US5908868A, “Retinol derivatives useful for enhancing immune response” (priority 1995, dated 1999)
